Test [1] is described as follows: Counterscreen for antagonists of the orexin 1 receptor (OX1R; HCRTR1): Fluorescence-based cell-based high throughput dose response assay to identify antagonists of the parental CHO cell line. [Related pubchem assays (depositor defined):AID434989, AID435008, AID463079, AID485270, AID492963, AID492964, AID492965, AID493232, AID504699, AID504701]. The test is classed as functional. A general note: A counterscreen serves to expose hits that act by an unwanted route or on another target.

Test [2] deals with T1, Orexin/Hypocretin receptor type 1 (Homo sapiens, UniProt O43613).
T1 sequence (O43613 whole entry): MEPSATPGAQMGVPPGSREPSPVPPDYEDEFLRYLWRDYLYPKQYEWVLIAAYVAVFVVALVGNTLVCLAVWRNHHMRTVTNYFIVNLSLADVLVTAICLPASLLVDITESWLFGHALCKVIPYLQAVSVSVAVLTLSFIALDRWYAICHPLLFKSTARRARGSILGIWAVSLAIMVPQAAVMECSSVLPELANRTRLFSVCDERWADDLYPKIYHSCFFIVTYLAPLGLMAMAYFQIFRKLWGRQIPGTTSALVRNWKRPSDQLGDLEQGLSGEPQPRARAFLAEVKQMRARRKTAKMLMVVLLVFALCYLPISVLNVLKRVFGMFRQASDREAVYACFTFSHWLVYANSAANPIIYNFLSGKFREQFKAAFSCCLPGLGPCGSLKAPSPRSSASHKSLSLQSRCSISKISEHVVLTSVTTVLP
The test is described as follows: Fluorescence-based cell-based high throughput dose response assay for antagonists of the orexin 1 receptor (OX1R; HCRTR1). [Related pubchem assays (depositor defined):AID434989, AID435008, AID463079, AID485270, AID492963, AID492964, AID492965, AID493232, AID504717, AID504718]. The test is classed as functional.

The target in test [3] is Kallikrein-7 (Homo sapiens, UniProt P49862). As to the kind of experiment: Fluorescence Intensity-based biochemical primary high throughput dose response assay to identify activators of kallikrein-7 (K7) zymogen.
The target in test [4] is T2, Orexin receptor type 2 (Homo sapiens, UniProt O43614).
T2 sequence (O43614 whole entry): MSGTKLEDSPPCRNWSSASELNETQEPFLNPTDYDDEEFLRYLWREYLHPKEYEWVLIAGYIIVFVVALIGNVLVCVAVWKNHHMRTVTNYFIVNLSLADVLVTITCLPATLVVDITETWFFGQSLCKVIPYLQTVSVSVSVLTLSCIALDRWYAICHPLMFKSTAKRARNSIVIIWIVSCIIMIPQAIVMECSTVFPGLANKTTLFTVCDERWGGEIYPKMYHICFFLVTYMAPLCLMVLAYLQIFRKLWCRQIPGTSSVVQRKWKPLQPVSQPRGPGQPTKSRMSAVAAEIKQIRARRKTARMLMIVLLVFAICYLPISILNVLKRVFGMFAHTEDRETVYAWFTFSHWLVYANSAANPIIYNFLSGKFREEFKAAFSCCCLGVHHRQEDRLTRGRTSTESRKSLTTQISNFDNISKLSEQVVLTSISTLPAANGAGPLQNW
As to the kind of experiment: Counterscreen assay for antagonists of the orexin 1 receptor (OX1R; HCRTR1): Fluorescence-based cell-based dose response assay for antagonists of the orexin 2 receptor (OX2R; HCRTR2), run by assay provider. The class given is functional.

The target of test [5] is T2, Orexin receptor type 2. As to the kind of experiment: Counterscreen assay for antagonists of the orexin 1 receptor (OX1R; HCRTR1): Homogeneous Time Resolved Fluorescence (HTRF)-based cell-based dose response assay for antagonists of the orexin 2 receptor (OX2R; HCRTR2), run by assay provider. The test is classed as functional.
For test [6], the system named is CHO-K1. The test is described as follows: Counterscreen for antagonists of the orexin 1 receptor (OX1R; HCRTR1): Homogeneous time resolved fluorescence (HTRF)-based cell-based dose response assay to identify antagonists of the parental CHO-K1 cell line. [Related pubchem assays (depositor defined):AID434989, AID435008, AID463079, AID485270, AID492963, AID492964, AID492965, AID493232, AID504699, AID504701]. The test is classed as functional. Particulars: Cricetulus griseus.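 Note: potency for inhibition of ATP-stimulated IP1 production as antagonists.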

Test [7] concerns the target T1, Orexin/Hypocretin receptor type 1. The test is described as follows: Homogeneous Time Resolved Fluorescence (HTRF)-based cell-based high throughput dose response assay for antagonists of the orexin 1 receptor (OX1R; HCRTR1). [Related pubchem assays (depositor defined):AID434989, AID435008, AID463079, AID485270, AID492963, AID492964, AID492965, AID493232, AID504717, AID504718]. The class given is functional.

A short description of test [8]: dual-tagged ARNT PAS-B bead signal quenchers – biochemical, dry powder, artefact control for ARNT/TACC3 disruptor project, dose response (AID 720564).
Test [9] relates to Streptococcus. As to the kind of experiment: GAS UMAA2166 growth inhibition – luminescence, BacTiterGlo, counter-screen for streptokinase expression inhibitor project, dose response (AID 1915).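 Note: potency for reduction of bacterial viability or growth.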 The test is classed as functional, organism-based.
Test [10] can be described thus: ATP-based viability loss in HEK293T cells – cell-based, CellTiter-Glo luminescence, dry powder, set 2, cytotoxicity control, dose response (AID 720595). The test is classed as functional. Particulars: HEK293. (In general: In ATP-based viability assays light output follows the ATP content of the culture.)
Test [11] has as its system Streptococcus sp. 'group A'. As to the kind of experiment: Streptococcus pyogenes SK(-)GAS viability under kanamycin – luminescence, BacTiterGlo, confirmation, counter-screen for streptokinase expression inhibitor project, dose response (AID 1900). The class given is functional, organism-based.
Test [12] is described as follows: ATP-based viability loss in HepG2 cells – cell-based, CellTiter-Glo luminescence, dry powder, set 3, cytotoxicity control, dose response (AID 720594). The class given is functional.
Test [13] deals with T3, Streptokinase A (Streptococcus pyogenes serotype M1, UniProt P10520).
T3 sequence (P10520 whole entry): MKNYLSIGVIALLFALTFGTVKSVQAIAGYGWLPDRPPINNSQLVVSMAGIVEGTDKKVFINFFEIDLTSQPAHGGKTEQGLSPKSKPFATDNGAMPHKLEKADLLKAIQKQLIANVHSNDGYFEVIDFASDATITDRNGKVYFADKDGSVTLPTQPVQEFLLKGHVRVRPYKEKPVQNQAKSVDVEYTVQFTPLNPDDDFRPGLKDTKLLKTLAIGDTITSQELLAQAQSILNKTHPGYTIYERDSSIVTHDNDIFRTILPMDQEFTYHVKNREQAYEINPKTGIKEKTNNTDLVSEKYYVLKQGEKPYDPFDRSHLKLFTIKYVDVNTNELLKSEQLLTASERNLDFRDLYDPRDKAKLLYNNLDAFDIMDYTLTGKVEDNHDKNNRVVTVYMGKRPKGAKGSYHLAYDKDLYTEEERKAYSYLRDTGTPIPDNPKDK
The test is described as follows: viability-normalized secreted streptokinase activity reduction – plasminogen activation absorbance, OD405, dose response (AID 1914).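 Note: secreted streptokinase activity via plasminogen activation per viability signal from cell pellet.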 The class given is functional, Streptococcus pyogenes M1 GAS.

A short description of test [14]: Luminescence-based cell-based high throughput dose response assay to identify activators of the DAF-12 from the parasite S. stercoralis (ssDAF-12). The class given is functional.
Test [15] deals with Oxysterols receptor LXR-beta (Homo sapiens, UniProt P55055). The test is described as follows: LXR agonists, Gal4 luciferase reporter, dose response, counter-screen for ssDAF-12 agonist project, cell-based, luminescence, HEK293, S. stercoralis campaign (AID 720737). The test is classed as functional. Conditions: read-out: IC50 (the source's name). Background: In a reporter assay the amount or activity of a reporter protein is the signal.

In test [16] the target is Paired box protein Pax-8 (Homo sapiens, UniProt Q06710). As to the kind of experiment: PAX8 transcriptional activity inhibition in RMG-I – RMG-I cells, luciferase, cherry-pick, dose response (AID 687027).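 Note: luciferase reporter driven by Pax8 target thyroperoxidase promoter measured by SteadyGlo luminescence.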 The class given is functional, cell-based.
Test [17] can be described thus: OVCAR-3 cell viability loss – plate reader, dry powder samples, PAX8 inhibitor project, dose response (AID 743044). The test is classed as functional, cell-based.
Test [18] in a line: general cell-killing toxicity readout – plate reader, dry powder samples, cytotoxicity control for PAX8 inhibitor project, dose response (AID 743021). The class given is functional, cell-based.
Test [19] can be described thus: IGROV1 cell killing – plate reader, dry powder samples, PAX8 inhibitor project, dose response (AID 743043). The class given is functional, cell-based. Conditions: IGROV-1.

One may read the IC50 as the midpoint of a concentration-inhibition curve. The term AC50 denotes the concentration giving half of the maximal activity seen.

Calls of active or inactive are those of the source.

Sequence of Paired box protein Pax-8 (Q06710 whole entry): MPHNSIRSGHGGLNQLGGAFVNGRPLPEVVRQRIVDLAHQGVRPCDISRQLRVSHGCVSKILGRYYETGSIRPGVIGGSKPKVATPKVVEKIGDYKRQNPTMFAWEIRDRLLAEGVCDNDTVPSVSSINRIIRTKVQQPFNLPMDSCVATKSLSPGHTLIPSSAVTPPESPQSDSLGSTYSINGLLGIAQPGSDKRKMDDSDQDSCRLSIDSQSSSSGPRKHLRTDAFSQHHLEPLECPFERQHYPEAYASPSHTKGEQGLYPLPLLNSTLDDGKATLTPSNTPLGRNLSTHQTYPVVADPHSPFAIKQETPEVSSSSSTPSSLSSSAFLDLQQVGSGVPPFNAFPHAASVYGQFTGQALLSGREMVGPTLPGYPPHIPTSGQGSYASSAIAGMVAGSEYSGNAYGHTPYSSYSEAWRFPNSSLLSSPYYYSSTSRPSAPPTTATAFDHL
Sequence of Oxysterols receptor LXR-beta (P55055 whole entry, the tested form may be a part): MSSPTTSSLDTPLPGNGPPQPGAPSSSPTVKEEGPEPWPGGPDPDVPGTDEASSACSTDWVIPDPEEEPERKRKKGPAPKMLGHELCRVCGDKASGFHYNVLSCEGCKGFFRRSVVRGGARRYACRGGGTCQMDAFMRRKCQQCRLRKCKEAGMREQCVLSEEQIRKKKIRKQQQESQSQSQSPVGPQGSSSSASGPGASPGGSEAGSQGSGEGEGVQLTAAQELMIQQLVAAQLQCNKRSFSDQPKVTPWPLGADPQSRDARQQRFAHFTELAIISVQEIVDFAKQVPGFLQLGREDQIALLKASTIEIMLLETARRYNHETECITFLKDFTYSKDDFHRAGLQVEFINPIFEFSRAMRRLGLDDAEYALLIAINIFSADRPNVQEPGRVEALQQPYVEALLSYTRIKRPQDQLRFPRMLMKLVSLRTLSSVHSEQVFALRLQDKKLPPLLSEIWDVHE
Sequence of Kallikrein-7 (P49862 whole entry): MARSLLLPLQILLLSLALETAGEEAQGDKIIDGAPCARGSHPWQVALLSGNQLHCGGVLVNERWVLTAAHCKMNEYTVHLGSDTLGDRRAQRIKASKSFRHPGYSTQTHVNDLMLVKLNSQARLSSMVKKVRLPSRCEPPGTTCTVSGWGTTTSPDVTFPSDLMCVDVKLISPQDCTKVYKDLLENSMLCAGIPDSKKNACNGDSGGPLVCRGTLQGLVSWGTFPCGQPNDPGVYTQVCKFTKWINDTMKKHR

In the case of `O=C(OC1CCOC1=O)c1ccc(-c2nc3ccccc3s2)s1` (centres undefined), the IC50 was > 49.8 µM (inactive) in test [1]; 9.49 µM (active) in [2]; > 88.8 µM (inactive) in test [4]; 11.4 µM (inactive) in test [5]; 29.9 µM (inactive) in test [6]; 1.98 µM (active) in [7]. For the same compound, the EC50 in test [3] is > 69.5 µM (inactive).

As to `CC1CCCN(S(=O)(=O)c2ccc(C(=O)Nc3nnc(C4=COCCO4)o3)cc2)C1` (centres undefined), the AC50 is 101 µM (active) in [8], 27.6 µM (active) in test [10] and > 52 µM (inactive) in test [12]. For the same compound, the EC50 in [9] is 98.4 µM (active); in test [11], 4.77 µM (active); in test [13] it was > 150 µM (not active).

With `COCCNC(=O)Cn1nc(-c2ccc(Cl)cc2)c2ccccc2c1=O`, the IC50 in test [14] was > 67.5 µM (inactive). Moreover, the EC50 in test [15] is > 67.5 µM (inactive).

In the case of `C[C@@H]1CN([C@@H](C)CO)C(=O)Cc2cc(NS(=O)(=O)c3ccc(Cl)cc3)ccc2O[C@@H]1CN(C)CC1CCCCC1`, the AC50 is 11.7 µM (active) in test [16], 21.2 µM (active) in test [17], 41.9 µM (active) in test [18] and 46.2 µM (active) in [19].

The values above are taken from ChEMBL document CHEMBL1201862, “PubChem BioAssay data set” (2004).
